Values of other authors, collected in patent publication US20240325349A1, “LIQUID PHARMACEUTICAL FORMULATIONS OF TOPIRAMATE” (TaP Pharmaceuticals AG, priority 2023, published 2024).
Read-outs that look alike come from different tables or passages of the source.

CC1(C)O[C@@H]2[C@@H](CO[C@@]3(COS(N)(=O)=O)OC(C)(C)O[C@@H]23)O1 [Topiramate, 2,3:4,5-Di-O-isopropylidene-β-D-fructopyranose sulfamate]
Topiramate Solubility (in Aconon C-30 (oil)): 50.7 ± 3.5 mg/mL
Topiramate Solubility (in Capmul MCM C-8 (oil)): 62.5 ± 3.9 mg/mL
Topiramate Solubility (in Capmul MCM EP (oil)): 61.4 ± 3.8 mg/mL
Topiramate Solubility (in Captex 355 (oil)): 14.5 ± 0.8 mg/mL
Topiramate Solubility (in Carbitol (cosurfactant)): 355.6 ± 29.2 mg/mL
Topiramate Solubility (in Cremophor EL (surfactant)): 78 ± 2.1 mg/mL
Topiramate Solubility (in Cremophor RH-40 (surfactant)): 46 ± 2.7 mg/mL
Topiramate Solubility (in Ethyl Oleate (oil)): 6.7 ± 0.3 mg/mL
Topiramate Solubility (in IPM (oil)): 6.7 ± 0.4 mg/mL
Topiramate Solubility (in Oleic Acid (oil)): 0.1 ± 0.1 mg/mL
Topiramate Solubility (in PEG 200 (cosurfactant)): 169.6 ± 2.3 mg/mL
Topiramate Solubility (in PEG 400 (cosurfactant)): 148.9 ± 3.5 mg/mL
Topiramate Solubility (in Sesfol 218 (oil)): 53.6 ± 2.6 mg/mL
Topiramate Solubility (in Tween 20 (surfactant)): 142.8 ± 6.4 mg/mL
Topiramate Solubility (in Tween 80 (surfactant)): 84.2 ± 3^ mg/mL
